According to US20150291598A1 (NOVARTIS AG, priority 2012, published 2015):

test system: P. falciparum (NF54 or 3D7 strain); test: Assay for P. falciparum proliferation in infected human blood cells (SYBR Green); assay type: cell-based, Plasmodium falciparum; details: Plasmodium falciparum, 3D7|NF54, Erythrocyte, in Homo sapiens, 72 h, NF54 or 3D7 infected human erythrocytes, 72 hours; read-out: EC50 (nM), inhibitory efficacy in delaying P. falciparum proliferation in infected human blood cells
Summary of the method: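 NF54 or 3D7 parasites in O+ human erythrocytes at 2.5% hematocrit and 0.3% parasitemia final, exposed to compounds 72 h at 37 °C under 93% N2/4% CO2/3% O2.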

Row | EC50 [nM] | Compound
1 | 462 | CN(C(=O)c1cn2c(-c3ccc(-n4ccnc4)cc3)cnc2cn1)c1ccc(C#N)cc1 [Compound 146]

same assay, conditions: Plasmodium falciparum, Erythrocyte, 72 h, NF54 or 3D7 infected human erythrocytes, 72 hours; read-out: EC50 (nM), inhibitory efficacy in delaying P. falciparum proliferation in infected human blood cells

Row | EC50 [nM] | Compound
2 | 188 | COc1ccccc1N(C)C(=O)c1cn2c(-c3ccc(C(F)(F)F)cc3)cnc2cn1 [Compound 110, N-(2-methoxyphenyl)-N-methyl-3-[4-(trifluoromethyl)phenyl]imidazo[1,2-a]pyrazine-6-carboxamide]
3 | 128 | O=C(c1cn2c(-c3ccc(C(F)(F)F)cc3)cnc2cn1)N1CCCc2cc(F)ccc21 [Compound 111, 6-fluoro-1-({3-[4-(trifluoromethyl)phenyl]imidazo[1,2-a]pyrazin-6-yl}carbonyl)-1,2,3,4-tetrahydroquinoline]
4 | 103 | CN(C(=O)c1cn2c(-c3ccc(Cl)cc3)cnc2cn1)c1ccc(F)c(F)c1 [Compound 112, 3-(4-chlorophenyl)-N-(3,4-difluorophenyl)-N-methylimidazo[1,2-a]pyrazine-6-carboxamide]
5 | 81 | Cc1ccc(-c2cnc3cnc(C(=O)N(C)c4ccc(C#N)cc4)cn23)cc1 [Compound 113, N-(4-cyanophenyl)-N-methyl-3-(4-methylphenyl)imidazo[1,2-a]pyrazine-6-carboxamide]
6 | 76 | CCN(C(=O)c1cn2c(-c3ccc(C(F)(F)F)cc3)cnc2cn1)c1ccc(C#N)cc1 [Compound 114, N-(4-cyanophenyl)-N-ethyl-3-[4-(trifluoromethyl)phenyl]imidazo[1,2-a]pyrazine-6-carboxamide]
7 | 82 | CC(C)c1ccc(-c2cnc3cnc(C(=O)N(C)c4ccc(C#N)cc4)cn23)cc1 [Compound 115, N-(4-cyanophenyl)-N-methyl-3-[4-(propan-2-yl)phenyl]imidazo[1,2-a]pyrazine-6-carboxamide]
8 | 230 | CN(C(=O)c1cn2c(-c3ccc(OC(F)(F)F)cc3)cnc2cn1)c1ccc(C#N)cc1 [Compound 116, -(4-cyanophenyl)-N-methyl-3-[4-(trifluoromethoxy)phenyl]imidazo[1,2-a]pyrazine-6-carboxamide]
9 | 92 | CNc1ccc(-c2cnc3cnc(C(=O)N(C)c4ccc(C#N)cc4)cn23)cc1 [Compound 117, N-(4-cyanophenyl)-N-methyl-3-[4-(methylamino)phenyl]imidazo[1,2-a]pyrazine-6-carboxamide]
10 | 135 | CN(C(=O)c1cn2c(-c3ccc(C(C)(C)C)cc3)cnc2cn1)c1ccc(C#N)cc1 [Compound 118, 3-(4-tert-butylphenyl)-N-(4-cyanophenyl)-N-methylimidazo[1,2-a]pyrazine-6-carboxamide]
11 | 507 | CN(C(=O)c1cn2c(-c3ccc(C(F)(F)F)cc3)cnc2cn1)c1ccccc1F [Compound 119, N-(2-fluorophenyl)-N-methyl-3-[4-(trifluoromethyl)phenyl]imidazo[1,2-a]pyrazine-6-carboxamide]
12 | 147 | CN(C(=O)c1cn2c(-c3ccc(C(C)(C)C#N)cc3)cnc2cn1)c1ccc(C#N)cc1 [Compound 120, -[4-(1-cyano-1-methylethyl)phenyl]-N-(4-cyanophenyl)-N-methylimidazo[1,2-a]pyrazine-6-carboxamide]
13 | 259 | CN(C)c1ccc(-c2cnc3cnc(C(=O)N(C)c4ccc(F)cc4)cn23)cc1 [Compound 121, 3-[4-(dimethylamino)phenyl]-N-(4-fluorophenyl)-N-methylimidazo[1,2-a]pyrazine-6-carboxamide]
14 | 266 | CN(C)c1ccc(-c2cnc3cnc(C(=O)N(C)c4ccc(Cl)cc4)cn23)cc1 [Compound 122, N-(4-chlorophenyl)-3-[4-(dimethylamino)phenyl]-N-methylimidazo[1,2-a]pyrazine-6-carboxamide]
15 | 387 | CN(C(=O)c1cn2c(-c3ccc4c(ccn4C)c3)cnc2cn1)c1ccc(C#N)cc1 [Compound 123, N-(4-cyanophenyl)-N-methyl-3-(1-methyl-1H-indol-5-yl)imidazo[1,2-a]pyrazine-6-carboxamide]
16 | 217 | CN(C(=O)c1cn2c(-c3ccc(N)cc3)cnc2cn1)c1ccc(C#N)cc1 [Compound 124, 3-(4-aminophenyl)-N-(4-cyanophenyl)-N-methylimidazo[1,2-a]pyrazine-6-carboxamide]
17 | 369 | CN(C(=O)c1cn2c(-c3ccc(-c4ccco4)cc3)cnc2cn1)c1ccc(C#N)cc1 [Compound 125, N-(4-cyanophenyl)-3-[4-(furan-2-yl)phenyl]-N-methylimidazo[1,2-a]pyrazine-6-carboxamide]
18 | 125 | CN(C(=O)c1cn2c(-c3ccc(C(F)(F)F)cc3)cnc2cn1)c1ccc(C#N)c(F)c1 [Compound 126, N-(4-cyano-3-fluorophenyl)-N-methyl-3-[4-(trifluoromethyl)phenyl]imidazo[1,2-a]pyrazine-6-carboxamide]
19 | 236 | CN(C(=O)c1cn2c(-c3ccc4c(ccn4C)c3)cnc2cn1)c1ccc(F)c(F)c1 [Compound 127, N-(3,4-difluorophenyl)-N-methyl-3-(1-methyl-1H-indol-5-yl)imidazo[1,2-a]pyrazine-6-carboxamide]

Row | EC50 [nM] | Compound
20 | > 10000 | CS(=O)(=O)c1ccc(NC(=O)c2cn3c(-c4ccc(C(F)(F)F)cc4)cnc3cn2)cc1 [Compound 128, N-(4-methanesulfonylphenyl)-3-[4-(trifluoromethyl)phenyl]imidazo[1,2-a]pyrazine-6-carboxamide]
21 | 800 | CN(C(=O)c1cn2c(-c3ccc(S(C)(=O)=O)cc3)cnc2cn1)c1ccc(C#N)cc1 [Compound 129, N-(4-cyanophenyl)-3-(4-methanesulfonylphenyl)-N-methylimidazo[1,2-a]pyrazine-6-carboxamide]
22 | 176 | COC(C)c1ccc(-c2cnc3cnc(C(=O)N(C)c4ccc(C#N)cc4)cn23)cc1 (stereo not shown) [Compound 130, N-(4-cyanophenyl)-3-[4-(1-methoxyethyl)phenyl]-N-methylimidazo[1,2-a]pyrazine-6-carboxamide]
23 | 140 | CN(C(=O)c1cn2c(-c3ccc(-c4ccn[nH]4)cc3)cnc2cn1)c1ccc(S(C)(=O)=O)cc1 [Compound 131, N-(4-methanesulfonylphenyl)-N-methyl-3-[4-(1H-pyrazol-5-yl)phenyl]imidazo[1,2-a]pyrazine-6-carboxamide]
24 | 206 | CN(C(=O)c1cn2c(-c3ccc(Cl)cc3)cnc2cn1)c1ccc(C#N)cc1 [Compound 132, 3-(4-chlorophenyl)-N-(4-cyanophenyl)-N-methylimidazo[1,2-a]pyrazine-6-carboxamide]
25 | 338 | N#Cc1ccc(N(CCC2CCOCC2)C(=O)c2cn3c(-c4ccc(C(F)(F)F)cc4)cnc3cn2)cc1 [Compound 133, N-(4-cyanophenyl)-N-[2-(oxan-4-yl)ethyl]-3-[4-(trifluoromethyl)phenyl]imidazo[1,2-a]pyrazine-6-carboxamide]
26 | 490 | CC(=O)c1ccc(-c2cnc3cnc(C(=O)N(C)c4ccc(C#N)cc4)cn23)cc1 [Compound 134, 3-(4-acetylphenyl)-N-(4-cyanophenyl)-N-methylimidazo[1,2-a]pyrazine-6-carboxamide]
27 | 81 | Cc1ccc(-c2cnc3cnc(C(=O)N(C)c4ccc(F)c(F)c4)cn23)cc1 [Compound 135, N-(3,4-difluorophenyl)-N-methyl-3-(4-methylphenyl)imidazo[1,2-a]pyrazine-6-carboxamide]
28 | 320 | CN(C(=O)c1cn2c(-c3ccc4c(ccn4C)c3)cnc2cn1)c1ccc(F)cc1 [Compound 136, N-(4-fluorophenyl)-N-methyl-3-(1-methyl-1H-indol-5-yl)imidazo[1,2-a]pyrazine-6-carboxamide]
29 | 226 | CN(C(=O)c1cn2c(-c3ccc(C(F)(F)F)cc3)cnc2cn1)c1cccc(F)c1 [Compound 137, N-(3-fluorophenyl)-N-methyl-3-[4-(trifluoromethyl)phenyl]imidazo[1,2-a]pyrazine-6-carboxamide]
30 | 849 | CN(C(=O)c1cn2c(-c3ccc(OCC(F)(F)F)cc3)cnc2cn1)c1ccc(C#N)cc1 [Compound 138, N-(4-cyanophenyl)-N-methyl-3-[4-(2,2,2-trifluoroethoxy)phenyl]imidazo[1,2-a]pyrazine-6-carboxamide]
31 | 1160 | COc1ccc(N(C)C(=O)c2cn3c(-c4ccc(C(F)(F)F)cc4)cnc3cn2)cc1 [Compound 139, N-(4-methoxyphenyl)-N-methyl-3-[4-(trifluoromethyl)phenyl]imidazo[1,2-a]pyrazine-6-carboxamide]
32 | 436 | CN(C(=O)c1cn2c(-c3ccc(C(F)(F)F)cc3F)cnc2cn1)c1ccc(C#N)cc1 [Compound 140, N-(4-cyanophenyl)-3-[2-fluoro-4-(trifluoromethyl)phenyl]-N-methylimidazo[1,2-a]pyrazine-6-carboxamide]
33 | 433 | CN(C(=O)c1cn2c(-c3ccc4c(ccn4C)c3)cnc2cn1)c1ccc(Cl)cc1 [Compound 141, N-(4-chlorophenyl)-N-methyl-3-(1-methyl-1H-indol-5-yl)imidazo[1,2-a]pyrazine-6-carboxamide]
34 | 202 | CN(C(=O)c1cn2c(-c3ccc(OC(F)F)cc3)cnc2cn1)c1ccc(F)c(F)c1 [Compound 142, 3-[4-(difluoromethoxy)phenyl]-N-(3,4-difluorophenyl)-N-methylimidazo[1,2-a]pyrazine-6-carboxamide]
35 | 1560 | CN(C(=O)c1cn2c(-c3ccc4[nH]cnc4c3)cnc2cn1)c1ccc(C#N)cc1 [Compound 143, 3-(1H-1,3-benzodiazol-5-yl)-N-(4-cyanophenyl)-N-methylimidazo[1,2-a]pyrazine-6-carboxamide]
36 | 366 | CN(C(=O)c1cn2c(-c3ccc(-n4cccn4)cc3)cnc2cn1)c1ccc(F)c(F)c1 [Compound 144, N-(3,4-difluorophenyl)-N-methyl-3-[4-(1H-pyrazol-1-yl)phenyl]imidazo[1,2-a]pyrazine-6-carboxamide]
37 | 648 | CN(C(=O)c1cn2c(-c3ccc4[nH]ncc4c3)cnc2cn1)c1ccc(C#N)cc1 [Compound 145, N-(4-cyanophenyl)-3-(1H-indazol-5-yl)-N-methylimidazo[1,2-a]pyrazine-6-carboxamide]
